# Read-outs that look alike come from different tables or passages of the source.
# How the values were obtained:
# [1] = test system: CT-DNA; experiment: Competitive EtBr displacement fluorescence quenching on CT-DNA; type: binding, calf; settings: for KSV, Stern–Volmer quenching constant: EB-CT-DNA adduct
# Method: Using fluorescence spectroscopy, the competitive binding relationship between metal complexes and CT-DNA bound to ethidium bromide was investigated. EtBr and CT-DNA solutions at a 5 mM concentration were made in PBS buffer (pH 7.4) for the fluorescence studies. After that, the reference solutions were allowed to settle at room temperature for an hour and the CT-DNA reference solution (200 μM) was coupled to ethidium bromide (50 μM) and allowed to rest for the specified period. The excitation and emission wavelengths were set at 460 nm and incremental addition of Ti(IV) complex concentrations ranging from 0 to 80 μM were used to titrate constant concentrations of EtBr-CT-DNA solution.[43,44]
# A known volume of 200 μM CT-DNA (5 Mm) and 50 μM EB was mixed with an aqueous PBS buffer to make an EB-CT-DNA solution. The mixture was then kept at room temperature for 20 minutes before the complexes were titrated. Analysis of the competitive interaction mechanisms of the complexes towards CT-DNA involved the incremental addition of Ti(IV) complexes to the mixture of EB-CT-DNA. The modification in the emission spectral profile of EB-DNA indicated the impact of the addition of the complexes and there was a noticeable decrease in inflorescence intensity when the Ti(IV) complexes (0–100 μM) were added to the EB-CT-DNA system (Fig. 4(a), ESI Fig. S63 ^† and Table 2).
# The linear plot of I0/I versus [complex] […] KSV is the Stern–Volmer quenching constant, and [Q] is the quencher concentration.6 Kapp × [Complex]50 = KEtBr × [EtBr]For the Ti(IV) complexes, Kapp (the apparent binding constant) was calculated using eqn (6), where KEtBr (1.0 × 10^7 M^−1) is the DNA binding constant of EB, [EtBr] is the concentration of EB = 10 μM and [Complex]50 denotes the complex concentration at which the fluorescence intensity of the DNA-EB adduct is reduced to 50%. […] Furthermore, the number of binding sites (n) and the equilibrium binding constant K were ascertained by using the Scatchard eqn (7):7 Log(I0 − I/I) = log K + n log[Q]where I0 is the fluorescence intensity of CT-DNA + EtBr in the absence of complex and I points to the fluorescence intensities of CT-DNA in the presence of a complex of concentration [Q]. The significant quenching in fluorescence intensity of all metal complexes (Table 2), the Stern–Volmer (ESI Fig. S64 ^†) and Scatchard plots (Fig. 4(c), ESI Fig. S65 ^† and Table 2), and other computations performed, supported the strong groove-binding interaction mode with CT-DNA.
# [2] = DPPH radical scavenging assay; type: biochemical; settings: 40 minutes, absorbance at 517 nm
# Source text: In the current study, 1,1-diphenyl 2-picrylhydrazyl (DPPH) radical scavenging screening determined the antioxidant properties of the synthesized Ti(IV) complexes. The spectrophotometric principle that led to the quenching of stable-colored radicals (DPPH) is the foundation of DPPH assays.[62] By detecting the drop in absorbance at 517 nm, which corresponds to the DPPH free radical, the scavenging activity of the produced complexes can be determined. The result of the reaction between the scavenger and colored free radical is 1,1-diphenyl-2-picrylhydrazine (DPPH-H), which lacks color. The newly synthesized Ti(IV) complexes were dissolved at a ratio of 1 mg mL^−1 in DMSO to create the stock solution. Similarly, methanol was used to prepare a stock solution of a 0.05 Mm DPPH solution. The Ti(IV) complexes were dissolved in DPPH stock solution to make (9.5 μM, 18.75 μM, 37.5 μM, 75 μM, 100 μM, and 300 μM) concentrations of the complexes and kept in a state of rest for 40 minutes under closed conditions. The absorbance of the Ti(IV) complexes was measured at 517 nm after 40 minutes for each solution loaded in 96-well plates using a Bio-Rad xMARK™ Microplate Spectrophotometer. For comparison, the absorbance of a control solution containing DPPH and methanol as blank, devoid of test samples, was also measured at the same level. Three sets of experiments were conducted for each concentration, using ascorbic acid as the standard reference. Using eqn (1), the proportion of DPPH free radical scavenging activity was calculated.[63]1 [drawing 1] where Ac and As are the absorbance of the control and the mixture. The necessary concentration of the Ti(IV) complexes to scavenge DPPH radicals was determined by employing linear regression to plot a curve between concentration and % inhibition.
# In order to ascertain the antioxidant activity of the Ti(IV) complexes, a UV-vis spectrophotometric examination was performed using the 1,1-diphenyl-2-picrylhydrazyl (DPPH) method. Since DPPH is thought to be a dependable, stable, free radical, it reacts with methanol to form a […]. The ability of the complexes containing DPPH radicals to scavenge radicals was evaluated in the manner described. Several concentrations of the Ti(IV) complexes were investigated. Mixtures created by mixing DPPH with each component were subjected to spectrophotometric analysis at 517 nm to determine the absorbance. Antioxidant compounds usually transfer one electron to act as a reducing agent.
# [3] = from eqn (6), complex concentration at 50% fluorescence
SMILES,"KSV, Stern–Volmer quenching constant [1] [M⁻¹]","Kapp, apparent DNA binding constant [1, 3] [M⁻¹]",IC50 [2] [µM],"Kapp, apparent DNA binding constant [1] [M⁻¹]","KSV, Stern–Volmer quenching constant ([1]; text value) [M⁻¹]"
[O-]C(=NN=Cc1c([O-])ccc2ccccc12)c1ccncc1.[O-]C(=NN=Cc1c([O-])ccc2ccccc12)c1ccncc1.[Ti+4] [Ti-2-IN],19000,3.56e+06,128.1 ± 0.3,–,–
COc1cccc(C=NN=C([O-])c2ccncc2)c1[O-].COc1cccc(C=NN=C([O-])c2ccncc2)c1[O-].[Ti+4] [Ti-3-IO],16000,3.4e+06,44.59 ± 0.4,–,–
[O-]C(=NN=Cc1ccccc1[O-])c1ccncc1.[O-]C(=NN=Cc1ccccc1[O-])c1ccncc1.[Ti+4] [Ti-1-IS],6000,3.03e+06,92.01 ± 0.1,–,–
Brc1ccc2c(c1)C=NN=C(c1ccncc1)[O][Ti]1([O]C(c3ccncc3)=NN=Cc3cc(Br)ccc3[O]1)[O]2 (centres unmarked) [Ti-6-IBr],16000,4.24e+06,74.84 ± 0.2,4.24e+06,–
[O-]C(=NN=Cc1cc(F)ccc1[O-])c1ccncc1.[O-]C(=NN=Cc1cc(F)ccc1[O-])c1ccncc1.[Ti+4] [Ti-4-IF],14000,3.41e+06,82.61 ± 0.1,–,–
[O-]C(=NN=Cc1cc(Cl)ccc1[O-])c1ccncc1.[O-]C(=NN=Cc1cc(Cl)ccc1[O-])c1ccncc1.[Ti+4] [Ti-5-ICl],26000,3.43e+06,72.26 ± 0.7,–,26000
